Test results reported in patent US20250304623A1, “PEPTIDES FOR INTRACELLULAR DELIVERY” (UNIVERSIDADE DE SANTIAGO DE COMPOSTELA, priority 2022, published 2025).

Experiments:
Type in all cases: cell-based
[1] = tested on: A549 cells; test: RLuc pDNA delivery, robotic library screening, A549
Outline: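 A549 cells in DMEM+10% FBS were washed twice with PBS and exposed for 4 h to amphiphile/RLuc pDNA complexes prepared from DMSO stocks diluted in DMEM. After medium replacement and 72 hours, cells in HBSS were incubated at 37° C. for 30 minutes, basal then total luminescence measured after 5 μM coelenterazine h; background from untransfected cells was subtracted.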

[2] = tested on: HCT116 cells; test: RLuc pDNA delivery, robotic library screening, HCT116
[3] = tested on: Hek293 cells; test: RLuc pDNA delivery, robotic library screening, Hek293
[4] = tested on: Hela cells; test: RLuc pDNA delivery, robotic library screening, HeLa
[5] = tested on: Hek293 cells expressing EGFP; test: EGFP-targeting siRNA delivery (GFP silencing vs siMOCK), Hek293
Protocol: To generate an EGFP expressing HeLa cell line, HeLa cells were transfected with EGFP pDNA (pEGFP-C1, Clontech) and stable transfectants were selected with 400 μg/mL of G-418 (Millipore). Green clones were selected by epifluorescence microscopy and tested for EGFP expression stability through several passages. […] All other EGFP-expressing cell lines were obtained in a similar way from parent non-EGFP-expressing cell lines.
Cells expressing EGFP were seeded in a 96 well plate the day before the experiment at a concentration of 50,000 cell/mL (100 μL/w) in DMEM+10% FBS+1% Gln-Abt. For robotic library screening, the delivery of an EGFP-targeting siRNA (EGFP: enhanced green fluorescent protein, Ambion® Silencer® GFP Positive Control siRNA (siGFP) (AM4626)) in six different cell lines expressing EGFP was performed. […] The mixture was shaken for 30 min at room temperature (rt) before the addition to the cells. The cell medium was aspirated, and cells were washed twice with PBS. Finally, 50 μL of the solution of siRNA/amphiphile complexes were added to the cells and incubated for 4 h. After transfection, the medium was replaced by 100 μL of fresh DMEM supplemented with 10% FBS. The fluorescence knockdown was quantified after 72 h in a plate reader, by comparison with cells transfected with a non-targeting siRNA control (siMOCK, Silencer™ Negative Control No. 1 siRNA (siMOCK) (AM4611)). EGFP knockdown was compared with Lipofectamine® RNAiMAX silencing efficiency (30-60% depending on cell line, defined with a numeric value in the below tables). All experiments were done in triplicate.
Tables 1-7: RLuc (pDNA) or EGFP (mRNA) expression levels were normalized to Lipofectamine reagents (value=1) and expressed as fold-times signal increase. In the case of siRNA, the siRNA treated cells fluorescence was compared with siMOCK control fluorescence, while Cas9-RNP mediated knockout was measured against the fluorescence of untreated cells. In both siRNA and Cas9-RNP, values are expressed as % fluorescence reduction. Amphiphile concentration was 5 μM in all cases. All experiments were performed in triplicate.
Tables 20-25 show the mean (triplicates) percentage of GFP-silencing, accounted by fluorescence intensity decrease relative to a non-targeting siRNA (siMOCK) control, measured after the transfection of siRNA by different amphiphiles at different concentrations in a variety of cell lines. Background values, accounted by untreated control cells, were subtracted for processing.

## Ac-RHLK*RHK*RRLK*RH-NH2 (Ac-RHLKRHKRRLKRH-NH2; not fully specified (residues 4, 7, 11); printed as Ac-RHLK*RHK*RRLK*RH-NH2; also: linker on K* not given here) [13(3His)]
[1]; Dodecanal, 15 μM
  mean luminescent intensity (RLuc pDNA): 1261 RLU
[1]; Myristoleyl, 5 μM
  mean luminescent intensity (RLuc pDNA): 37751 RLU
[1]; Myristoleyl, 10 μM
  mean luminescent intensity (RLuc pDNA): 2256 RLU
[1]; Oleyl, 5 μM
  mean luminescent intensity (RLuc pDNA): 25257 RLU
[1]; Palmitoleyl, 5 μM
  mean luminescent intensity (RLuc pDNA): 18924 RLU
[1]; Palmitoleyl, 10 μM
  mean luminescent intensity (RLuc pDNA): 2866 RLU
[1]; Palmitoleyl, 15 μM
  mean luminescent intensity (RLuc pDNA): 2990 RLU
[1]; Petroselinyl, 5 μM
  mean luminescent intensity (RLuc pDNA): 5271 RLU
[1]; Petroselinyl, 15 μM
  mean luminescent intensity (RLuc pDNA): 8545 RLU
[2]; Dodecanal, 5 μM
  mean luminescent intensity (RLuc pDNA): 22167 RLU
[2]; Dodecanal, 10 μM
  mean luminescent intensity (RLuc pDNA): 7176 RLU
[2]; Myristoleyl, 5 μM
  mean luminescent intensity (RLuc pDNA): 94125 RLU
[2]; Myristoleyl, 15 μM
  mean luminescent intensity (RLuc pDNA): 738 RLU
[2]; Palmitoleyl, 5 μM
  mean luminescent intensity (RLuc pDNA): 109244 RLU
[2]; Petroselinyl, 5 μM
  mean luminescent intensity (RLuc pDNA): 19145 RLU
[2]; Petroselinyl, 10 μM
  mean luminescent intensity (RLuc pDNA): 45000 RLU
[2]; Petroselinyl, 15 μM
  mean luminescent intensity (RLuc pDNA): 8961 RLU
[3]; Oleyl, 5 μM
  mean luminescent intensity (RLuc pDNA): 294438 RLU
[3]; Oleyl, 10 μM
  mean luminescent intensity (RLuc pDNA): 191190 RLU
[3]; Oleyl, 15 μM
  mean luminescent intensity (RLuc pDNA): 87323 RLU
[3]; Palmitoleyl, 5 μM
  mean luminescent intensity (RLuc pDNA): 46216 RLU
[3]; Palmitoleyl, 10 μM
  mean luminescent intensity (RLuc pDNA): 51837 RLU
[3]; Palmitoleyl, 15 μM
  mean luminescent intensity (RLuc pDNA): 10351 RLU
[3]; Petroselinyl, 5 μM
  mean luminescent intensity (RLuc pDNA): 330418 RLU
[3]; Petroselinyl, 10 μM
  mean luminescent intensity (RLuc pDNA): 145597 RLU
[3]; Petroselinyl, 15 μM
  mean luminescent intensity (RLuc pDNA): 36468 RLU
[4]; HeLa, Oleyl, 5 μM
  mean luminescent intensity (RLuc pDNA): 226412 RLU
[4]; HeLa, Petroselinyl, 10 μM
  mean luminescent intensity (RLuc pDNA): 115599 RLU
[4]; Hela, Myristoleyl, 5 μM
  mean luminescent intensity (RLuc pDNA): −294 RLU
[4]; Hela, Myristoleyl, 10 μM
  mean luminescent intensity (RLuc pDNA): −246 RLU
[4]; Hela, Myristoleyl, 15 μM
  mean luminescent intensity (RLuc pDNA): −405 RLU
[4]; Hela, Oleyl, 10 μM
  mean luminescent intensity (RLuc pDNA): 180751 RLU
[4]; Hela, Oleyl, 15 μM
  mean luminescent intensity (RLuc pDNA): 31589 RLU
[4]; Hela, Palmitoleyl, 5 μM
  mean luminescent intensity (RLuc pDNA): 8590 RLU
[4]; Hela, Petroselinyl, 5 μM
  mean luminescent intensity (RLuc pDNA): 122581 RLU
[4]; Hela, Petroselinyl, 15 μM
  mean luminescent intensity (RLuc pDNA): 25022 RLU
[5]; Dodecanal, 10 μM
  percentage of GFP-silencing relative to siMOCK: −11%
[5]; Myristoleyl, 15 μM
  percentage of GFP-silencing relative to siMOCK: 11%
[5]; Oleyl, 10 μM
  percentage of GFP-silencing relative to siMOCK: 2%
